Tests used:
Type in all cases: in vivo
Echinochloa crus-galli [1] = assay: Test Example 1: herbicidal effect test by treatment of rice paddy soil (immediately after seeding); settings: 120 g/10a active ingredient, dry weight vs untreated area, 14 days after treatment
Method in brief: (§1)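 Values are herbicidal rates (%) derived from average plant dry weight in treated versus untreated pots 14 days after treatment, run in duplicate. Treatment was a water-diluted emulsion dropped into flooded paddy soil right after sowing, at 120 g active ingredient per 10 ares.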

Scirpus juncoides [2] = assay: as above; settings: 120 g/10a active ingredient, dry weight vs untreated area, 14 days after treatment
Method in brief: as §1

[3] = test system: broad leaf weeds (Lindernia pyxidaria and Monochoria vaginalis); assay: as above; settings: 120 g/10a active ingredient, dry weight vs untreated area, 14 days after treatment
Method in brief: as §1

Echinochloa crus-galli [4] = assay: Test Example 2: herbicidal effect test by treatment during growing period in paddy rice cultivation (seven days after seeding); settings: 120 g/10a active ingredient, assessed 14 days after treatment, dry weight vs untreated area
Method in brief: (§2)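 Seeds sown 0–1 cm deep in puddled, fertilised paddy soil with about 3 cm standing water in a glass greenhouse. Diluted emulsion dropped into the water seven days after seeding at 120 g active ingredient per 10 ares. Herbicidal rate (%) from mean dry weight vs untreated, duplicate, 14 days after treatment.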

Scirpus juncoides [5] = assay: as above; settings: 120 g/10a active ingredient, assessed 14 days after treatment, dry weight vs untreated area
Method in brief: as §2

[6] = test system: broad leaf weeds (Lindernia pyxidaria and Monochoria vaginalis); assay: as above; settings: 120 g/10a active ingredient, assessed 14 days after treatment, dry weight vs untreated area
Method in brief: as §2

**Q.** Which results are given for Cc1c(Cc2ccccc2N(S(=O)(=O)C(F)(F)F)S(=O)(=O)C(F)(F)F)c(=O)on1Cc1ccc(OC(F)(F)F)cc1 [Compound 1-1023]?
**A.** Herbicidal rate (%) Echinochloa crus-galli (Echinochloa crus-galli [1]): 50%; Herbicidal rate (%) Scirpus juncoides (Scirpus juncoides [2]): 50%; Herbicidal rate (%) Lindernia pyxidaria [3]: 40%; Herbicidal rate (%) Monochoria vaginalis [3]: 50%; Herbicidal rate (%) Echinochloa crus-galli (Echinochloa crus-galli [4]): 40%; Herbicidal rate (%) Scirpus juncoides (Scirpus juncoides [5]): 40%; Herbicidal rate (%) Lindernia pyxidaria [6]: 40%; Herbicidal rate (%) Monochoria vaginalis [6]: 40%

**Q.** For Cc1c(Cc2ccccc2N(S(=O)(=O)C(F)(F)F)S(=O)(=O)C(F)(F)F)c(=O)on1Cc1ccc(F)cc1F [Compound 1-1026], which “Herbicidal rate (%) Echinochloa crus-galli” value (Echinochloa crus-galli [1]) is on record?
**A.** 100%

**Q.** And the “Herbicidal rate (%) Scirpus juncoides” value (Scirpus juncoides [2])?
**A.** 90%

**Q.** And the “Herbicidal rate (%) Lindernia pyxidaria” value [3]?
**A.** 100%

**Q.** And the “Herbicidal rate (%) Monochoria vaginalis” value [3]?
**A.** 100%

**Q.** What about the “Herbicidal rate (%) Echinochloa crus-galli” value (Echinochloa crus-galli [4]) of the same compound?
**A.** 60%

**Q.** What about the “Herbicidal rate (%) Scirpus juncoides” value (Scirpus juncoides [5]) of the same compound?
**A.** 80%

**Q.** What about the “Herbicidal rate (%) Lindernia pyxidaria” value [6] of the same compound?
**A.** 100%

**Q.** And the “Herbicidal rate (%) Monochoria vaginalis” value [6]?
**A.** 90%

**Q.** Which results are given for Cc1c(Cc2ccccc2N(S(=O)(=O)C(F)(F)F)S(=O)(=O)C(F)(F)F)c(=O)on1Cc1ccc(F)c(F)c1 [Compound 1-1027]?
**A.** Herbicidal rate (%) Echinochloa crus-galli (Echinochloa crus-galli [1]): 90%; Herbicidal rate (%) Scirpus juncoides (Scirpus juncoides [2]): 80%; Herbicidal rate (%) Lindernia pyxidaria [3]: 100%; Herbicidal rate (%) Monochoria vaginalis [3]: 100%; Herbicidal rate (%) Echinochloa crus-galli (Echinochloa crus-galli [4]): 40%; Herbicidal rate (%) Scirpus juncoides (Scirpus juncoides [5]): 40%; Herbicidal rate (%) Lindernia pyxidaria [6]: 40%; Herbicidal rate (%) Monochoria vaginalis [6]: 40%

**Q.** What does the source list for Cc1c(Cc2ccccc2N(S(=O)(=O)C(F)(F)F)S(=O)(=O)C(F)(F)F)c(=O)on1Cc1ccc(F)cc1Cl [Compound 1-1028]?
**A.** Herbicidal rate (%) Echinochloa crus-galli (Echinochloa crus-galli [1]): 80%; Herbicidal rate (%) Scirpus juncoides (Scirpus juncoides [2]): 40%; Herbicidal rate (%) Lindernia pyxidaria [3]: 80%; Herbicidal rate (%) Monochoria vaginalis [3]: 90%; Herbicidal rate (%) Echinochloa crus-galli (Echinochloa crus-galli [4]): 0%; Herbicidal rate (%) Scirpus juncoides (Scirpus juncoides [5]): 0%; Herbicidal rate (%) Lindernia pyxidaria [6]: 40%; Herbicidal rate (%) Monochoria vaginalis [6]: 40%

**Q.** Which “Herbicidal rate (%) Echinochloa crus-galli” value (Echinochloa crus-galli [1]) does the source give for Cc1c(Cc2ccccc2N(S(=O)(=O)C(F)(F)F)S(=O)(=O)C(F)(F)F)c(=O)on1C(C)c1ccc(F)cc1 (stereo not drawn) [Compound 1-1031] here?
**A.** 100%

**Q.** And the “Herbicidal rate (%) Scirpus juncoides” value (Scirpus juncoides [2])?
**A.** 100%

**Q.** And the “Herbicidal rate (%) Lindernia pyxidaria” value [3]?
**A.** 100%

**Q.** What about the “Herbicidal rate (%) Monochoria vaginalis” value [3] of the same compound?
**A.** 100%

**Q.** And the “Herbicidal rate (%) Echinochloa crus-galli” value (Echinochloa crus-galli [4])?
**A.** 90%

**Q.** And the “Herbicidal rate (%) Scirpus juncoides” value (Scirpus juncoides [5])?
**A.** 100%

**Q.** What about the “Herbicidal rate (%) Lindernia pyxidaria” value [6] of the same compound?
**A.** 100%

**Q.** What about the “Herbicidal rate (%) Monochoria vaginalis” value [6] of the same compound?
**A.** 100%

**Q.** Which results are given for Cc1c(Cc2ccccc2N(S(=O)(=O)C(F)(F)F)S(=O)(=O)C(F)(F)F)c(=O)on1C(C)c1ccccc1Cl (stereo not drawn) [Compound 1-1032]?
**A.** Herbicidal rate (%) Echinochloa crus-galli (Echinochloa crus-galli [1]): 80%; Herbicidal rate (%) Scirpus juncoides (Scirpus juncoides [2]): 90%; Herbicidal rate (%) Lindernia pyxidaria [3]: 90%; Herbicidal rate (%) Monochoria vaginalis [3]: 90%; Herbicidal rate (%) Echinochloa crus-galli (Echinochloa crus-galli [4]): 40%; Herbicidal rate (%) Scirpus juncoides (Scirpus juncoides [5]): 40%; Herbicidal rate (%) Lindernia pyxidaria [6]: 40%; Herbicidal rate (%) Monochoria vaginalis [6]: 40%

**Q.** With Cc1c(Cc2ccccc2N(S(=O)(=O)C(F)(F)F)S(=O)(=O)C(F)(F)F)c(=O)on1C(C)c1cccc(Cl)c1 (stereo not drawn) [Compound 1-1033] as the compound, how does the “Herbicidal rate (%) Echinochloa crus-galli” value (Echinochloa crus-galli [1]) read?
**A.** 90%

**Q.** What about the “Herbicidal rate (%) Scirpus juncoides” value (Scirpus juncoides [2]) of the same compound?
**A.** 90%

**Q.** And the “Herbicidal rate (%) Lindernia pyxidaria” value [3]?
**A.** 100%

**Q.** What about the “Herbicidal rate (%) Monochoria vaginalis” value [3] of the same compound?
**A.** 100%

**Q.** What about the “Herbicidal rate (%) Echinochloa crus-galli” value (Echinochloa crus-galli [4]) of the same compound?
**A.** 70%

**Q.** And the “Herbicidal rate (%) Scirpus juncoides” value (Scirpus juncoides [5])?
**A.** 80%

**Q.** What about the “Herbicidal rate (%) Lindernia pyxidaria” value [6] of the same compound?
**A.** 80%

**Q.** And the “Herbicidal rate (%) Monochoria vaginalis” value [6]?
**A.** 80%

**Q.** For Cc1c(Cc2ccccc2N(S(=O)(=O)C(F)(F)F)S(=O)(=O)C(F)(F)F)c(=O)on1C(C)c1ccc(Cl)cc1 (stereo not drawn) [Compound 1-1034], which “Herbicidal rate (%) Echinochloa crus-galli” value (Echinochloa crus-galli [1]) is on record?
**A.** 100%

**Q.** What about the “Herbicidal rate (%) Scirpus juncoides” value (Scirpus juncoides [2]) of the same compound?
**A.** 90%

**Q.** What about the “Herbicidal rate (%) Lindernia pyxidaria” value [3] of the same compound?
**A.** 100%

**Q.** And the “Herbicidal rate (%) Monochoria vaginalis” value [3]?
**A.** 100%

**Q.** And the “Herbicidal rate (%) Echinochloa crus-galli” value (Echinochloa crus-galli [4])?
**A.** 90%

**Q.** And the “Herbicidal rate (%) Scirpus juncoides” value (Scirpus juncoides [5])?
**A.** 90%

**Q.** And the “Herbicidal rate (%) Lindernia pyxidaria” value [6]?
**A.** 80%

**Q.** What about the “Herbicidal rate (%) Monochoria vaginalis” value [6] of the same compound?
**A.** 80%

**Q.** What does the source list for Cc1c(Cc2ccccc2N(S(=O)(=O)C(F)(F)F)S(=O)(=O)C(F)(F)F)c(=O)on1C(C)c1ccc(OC(F)(F)F)cc1 (stereo not drawn) [Compound 1-1036]?
**A.** Herbicidal rate (%) Echinochloa crus-galli (Echinochloa crus-galli [1]): 70%; Herbicidal rate (%) Scirpus juncoides (Scirpus juncoides [2]): 70%; Herbicidal rate (%) Lindernia pyxidaria [3]: 60%; Herbicidal rate (%) Monochoria vaginalis [3]: 60%; Herbicidal rate (%) Echinochloa crus-galli (Echinochloa crus-galli [4]): 40%; Herbicidal rate (%) Scirpus juncoides (Scirpus juncoides [5]): 60%; Herbicidal rate (%) Lindernia pyxidaria [6]: 60%; Herbicidal rate (%) Monochoria vaginalis [6]: 60%

**Q.** What does the source list for Cc1c(Cc2ccccc2N(S(=O)(=O)C(F)(F)F)S(=O)(=O)C(F)(F)F)c(=O)on1C(C)c1ccc(F)cc1F (stereo not drawn) [Compound 1-1037]?
**A.** Herbicidal rate (%) Echinochloa crus-galli (Echinochloa crus-galli [1]): 90%; Herbicidal rate (%) Scirpus juncoides (Scirpus juncoides [2]): 90%; Herbicidal rate (%) Lindernia pyxidaria [3]: 70%; Herbicidal rate (%) Monochoria vaginalis [3]: 60%; Herbicidal rate (%) Echinochloa crus-galli (Echinochloa crus-galli [4]): 90%; Herbicidal rate (%) Scirpus juncoides (Scirpus juncoides [5]): 60%; Herbicidal rate (%) Lindernia pyxidaria [6]: 60%; Herbicidal rate (%) Monochoria vaginalis [6]: 50%

**Q.** Which “Herbicidal rate (%) Echinochloa crus-galli” value (Echinochloa crus-galli [1]) does the source give for Cc1c(Cc2ccccc2N(S(=O)(=O)C(F)(F)F)S(=O)(=O)C(F)(F)F)c(=O)on1CCc1ccccc1 [Compound 1-1043] here?
**A.** 100%

**Q.** And the “Herbicidal rate (%) Scirpus juncoides” value (Scirpus juncoides [2])?
**A.** 90%

**Q.** And the “Herbicidal rate (%) Lindernia pyxidaria” value [3]?
**A.** 100%

**Q.** What about the “Herbicidal rate (%) Monochoria vaginalis” value [3] of the same compound?
**A.** 100%

**Q.** What about the “Herbicidal rate (%) Echinochloa crus-galli” value (Echinochloa crus-galli [4]) of the same compound?
**A.** 90%

**Q.** And the “Herbicidal rate (%) Scirpus juncoides” value (Scirpus juncoides [5])?
**A.** 90%

**Q.** And the “Herbicidal rate (%) Lindernia pyxidaria” value [6]?
**A.** 100%

**Q.** And the “Herbicidal rate (%) Monochoria vaginalis” value [6]?
**A.** 100%

**Q.** Cc1c(Cc2ccccc2N(S(=O)(=O)C(F)(F)F)S(=O)(=O)C(F)(F)F)c(=O)on1CCc1ccc(F)cc1 [Compound 1-1044] was tested. Which “Herbicidal rate (%) Echinochloa crus-galli” value (Echinochloa crus-galli [1]) did it give?
**A.** 90%

**Q.** And the “Herbicidal rate (%) Scirpus juncoides” value (Scirpus juncoides [2])?
**A.** 40%

**Q.** And the “Herbicidal rate (%) Lindernia pyxidaria” value [3]?
**A.** 60%

**Q.** And the “Herbicidal rate (%) Monochoria vaginalis” value [3]?
**A.** 40%

**Q.** And the “Herbicidal rate (%) Echinochloa crus-galli” value (Echinochloa crus-galli [4])?
**A.** 70%

**Q.** And the “Herbicidal rate (%) Scirpus juncoides” value (Scirpus juncoides [5])?
**A.** 70%

**Q.** And the “Herbicidal rate (%) Lindernia pyxidaria” value [6]?
**A.** 40%

**Q.** What about the “Herbicidal rate (%) Monochoria vaginalis” value [6] of the same compound?
**A.** 40%

From US11109593B2, “Isoxazolin-5-one derivative and herbicide containing same as active ingredient” (HOKKO CHEMICAL INDUSTRY CO., LTD., priority 2017, dated 2021)
